In the data set the test system is pronase. Kind of data set: Proteolytic degradation assay with pronase (RP-HPLC, MALDI-TOF-MS). In kind it is in vitro ADME. The following applies: Streptomyces griseus, pronase (isolated proteolytic enzyme) in DPBS; pronase 0.35 U/mL in DPBS, 37° C., 50 μM peptide, after 3 hours; read-out: peptide cleavage. As to the method:
The stability of drug delivery systems serves as a basis for enhancing half-life of therapeutic cargos during the course of delivery to targeted areas. To evaluate the stability of peptide brush polymers, positively charged poly(GGSGSGK) and its single peptide analogue GGSGSGK were treated with pronase, a robust proteolytic enzyme isolated from the extracellular fluid of Streptomyces griseus. RP-HPLC and MALDI-TOF mass spectroscopy were used to quantify the cleavage of peptides (FIGS. 30-33). As expected, the peptide underwent rapid degradation in the presence of pronase, resulting in approximately 75% peptide cleavage after 3 hours.
Monomer Nor-GGSGSGK and polymer Poly(GGSGSGK) (50 μM, with respect to peptide concentration) were treated with pronase (0.35 U/mL) in DPBS at 37° C. After treatment, the enzyme was heat denatured at 65° C. for 15 min.

Peptide text beside a SMILES is read from it. * marks the point of attachment. X1 = O=C1C2C3C=CC(C3)C2C(=O)N1CC(=O)*

For the compound `NCCCC[C@H](NC(=O)CNC(=O)[C@H](CO)NC(=O)CNC(=O)[C@H](CO)NC(=O)CNC(=O)CN1C(=O)C2C3C=CC(C3)C2C1=O)C(N)=O` (stereo partly shown) [GGSGSGK] (X1-GSGSGK-NH2; N-terminus assumed), the metabolised at 3 h, 50 μM is around 75%.

(Values after US12678510B2, “Drug loaded peptide brush polymers” (priority 2020, dated 2026).)
